The conditions of data set [1]: literature; cited from earlier work.
Data set [2] deals with laboratory mice and rats. Put plainly: acute toxicity, LD50/30, injection into blood circulation, 30 days observation. The data set is classed as in vivo, Swiss mice and Wistar rats. As to the method:
(§1) The acute toxicity values of the products prepared according to Examples 1 to 16 were determined on laboratory mice and rats in the following manner.
(§2) Solutions containing the compounds in various concentrations were prepared by using physiological saline solution or glucose solution of 5% by weight concentration and the active agents were administered in various concentrations into the blood circulation of the animals by injecting them slowly during 3 to 5 minutes. Groups consisting of 6 to 10 animals (Swiss mice and Wistar rats of both sexes) each were used for the various dose levels. […] The LD50/30 value (i.e. the dose causing the death of 50% of the experimental animals within 30 days) was determined from the number of animals died during this period by using probit analysis/D. J. Finney: Probit Analysis (2nd ed.) Cambridge University Press (1952)/. These values expressed in mmol/kg of body-weight for the active agents according to the invention are summarized in column (B) of Table 1.

A short description of data set [3]: radioactive isotope elimination-increasing effect, isotope into abdominal cavity, whole-body retention. The data set is classed as in vivo, Swiss mice. The following applies: for EI value: effectivity (isotope elimination as % related to control) multiplied by LD50/30, 0-5 weak, 5-50 medium, 50-100 good, above 100 excellent; for F factor: multiplication of isotope elimination relative to untreated animals, i.v. 50 to 100 μmol/kg, 30 to 60 minutes after isotope. From the text:
(§3) The action of the compounds of formula (I) according to the invention, which manifests itself as an increase in the elimination of metal ions damaging the living organism, was investigated by using radioactive strontium or cerium ions on Swiss mice and Wistar rats of both sexes.
(§4) The elimination was studied on radioactive isotopes introduced in various routes to various sites, e.g. to the blood circulation, abdominal cavity, lungs, muscles or subcutaneous connective tissue of the experimental animals. The compound increasing the elimination of the isotopes was administered daily once or two times in the form of an injection, powder or liquid aerosol or plaster to the organism of the experimental animals. Thereafter, whole body activity measurements were performed and retention curves were taken up which then were compared to the results obtained in the control group.
The retention curves obtained were analysed on a computer. "Nonlinear Regression by the Code of BMDP-3R" (BMDP Statistical Software Manual, UCLA, Los Angeles, 1990, Chief Ed. W. J. Dixon) computer software was used for this purpose. It could be stated from the results obtained that the curves could be described by a two-component descending exponential function. Two data were calculated for characterizing the effectivity. One of these was the so-called F factor indicating the increase in the elimination in relation to the control and meaning the multiplication of the isotope elimination under effect of the test compound in relation to the untreated animals/see column (C) in Table 1/.
For the illustrative comparison of the compounds according to the invention additional characteristic data, the so-called EI values are given which were obtained by multiplying the extent of isotope elimination as percentage related to the control group (effectivity, E) with the acute toxicity value (LD50/30, innocuous, I)/see column (D) in Table 1/. Although the EI value is numerically not identical to the therapeutic ratio (safety index), it indicates in all cases to a weak or excellent activity of a product.
The radioactive isotope elimination-increasing effects of compounds prepared according to Examples 1 to 16 were compared on Swiss mice as described hereinafter.
An activity of 37 to 74 kBg (1 to 2 μCi) of radioactive strontium (Sr-85Cl2) or radioactive cerium (Ce-144Cl3), respectively, was administered into the abdominal cavity of the animals which were then divided into treatment groups consisting of 5 to 10 animals each. At 30 to 60 minutes after administration of the isotope, the animals of the treated groups were intravenously (i.v.) given the active agent used in an amount to achieve s concentration of 50 to 100 μmol/kg of body-weight in the animal organism for each treatment. The animals of the control groups were similarly treated with the carrier (sterile physiological saline or glucose solution of 5% by weight concentration) without active agent.
The amount of radioactivity introduced to the animal organism was determined immediately after administration of the isotope, thru these measurements were repeated daily or in every two the or three days in a device constructed for the purpose of the whole-body measurements on small animals. The counts observed were related to the starting activity value of the zero (0) day and a so-called retention/time correlation was obtained by considering the activity retained in the organism. The change of activity of the animal organism in the time is illustrated in FIG. 1 where the time (in days) elapsed after the treatment is shown on the abscissa and the whole-body retention as percentage is plotted on the ordinate. It can be seen that the rate of elimination of Sr-85 administered into the abdominal cavity of control animals was slow: within 1 day only 15%, within 4 days 25% and within 7 days 30% of the activity were eliminated from their organism and the elimination was even more delayed in the later period. […]

The nature of data set [4]: elimination of radioactive strontium introduced through the trachea into the lungs, whole-body retention (FIG. 2). It counts as in vivo, Wistar rats. The source says: FIGS. 2 & 3 show the percentages of metal ions retained in the body, plotted over 32 days after treatment with compound "b)" of example 6 at both full and double strength, referenced against an untreated control.
a) The whole-body retention curves illustrated in FIG. 2 show the elimination of radioactive strontium introduced through the trachea into the lungs of Wistar rats after intraperitoneal (i.p.) administration of the compound described in Example 6 b). It can be seen from the pattern of the upper curve of FIG. 2 that the radioactive strontium was eliminated to a low grade from the organism of control animals treated only with the solvent. Not more than 30 to 35% of the starting activity were eliminated in the days following the inner contamination. […] The rapid elimination of the isotope was continued in the days following the treatment, and reached 88 to 90% in the once-treated group and 94 to 96% in the twice-treated group. […] The residual activity of 5 to 10% measured as whole-body retention was found in the soft parts and liver of the animals whereas the major part (65 to 70%) of the retention found in the controls were built in to the bones. Similarly advantageous results were obtained by administering the compounds according to the invention in an intravenous route or into the subcutaneous connective tissue.

Data set [5] can be described thus: decorporation investigations by various routes, whole-body activity and deposition in bones. It counts as in vivo, Swiss mice and Wistar rats. The following applies: decorporating effect; disodium salt.
Source text: as §3, §4
The retention curves obtained were analysed on a computer. "Nonlinear Regression by the Code of BMDP-3R" (BMDP Statistical Software Manual, UCLA, Los Angeles, 1990, Chief Ed. W. J. Dixon) computer software was used for this purpose. It could be stated from the results obtained that the curves could be described by a two-component descending exponential function. Two data were calculated for characterizing the effectivity. […]

The nature of data set [6]: acute toxicity, LD50/30, injection into blood circulation, 30 days observation. The data set is classed as in vivo, Swiss mice and Wistar rats. The following applies: in vivo, iv; dose causing death of 50% of animals within 30 days; slow injection into the blood circulation during 3 to 5 minutes; mice and rats; probit analysis. As to the method: as §1, §2

Consider six molecules from patent US5440031A, “1,4,10,13-tetraoxa-7,16-diazacyclooctadecane derivatives, pharmaceutical compositions containing them and their use for the removal of toxic metal ions and radioactive isotopes from living organism” (priority 1990, dated 1995).

Entries after “also recorded” stand apart in the source; their conditions may differ. Counter-ions that a name gives are not always drawn.

In the case of `O=C(O)CN(CCN(CC(=O)O)CC(=O)O)CCN(CC(=O)O)CC(=O)O` [diethylenetriaminepentaacetic acid], the “stability of calcium complexes versus strontium complexes” value in data set [1] was “substantially more stable than their strontium complexes”.
Consider `O=C(O)CN(CCN(CC(=O)O)CC(=O)O)CC(=O)O` [ethylenediaminetetraacetic acid], for which the “stability of calcium complexes versus strontium complexes” value in data set [1] is given as “substantially more stable than their strontium complexes”.
As for “N,N'-bis(dicarboxymethyl)-1,4,10,13-tetraoxa-7,16-diazacyclooctadecane calcium complex disodium salt containing disodium hydroxymalonate and sodium chloride [6/b]”, in data set [2] (dose causing death of 50% of animals within 30 days, slow injection into the blood circulation during 3 to 5 minutes, mice and rats, probit analysis), the “Acute toxicity LD50/30” value is reported as “above 3.0 mmol/kg”. Further, in data set [3], the EI value came out at 160.00 and the F factor is 4.2. Moreover, the “radioactive strontium in the bones” value in data set [4] (animals killed at the end of the experiment, controls 65 to 70% of retention built in to the bones) is recorded as “hardly any or no radioactive strontium could be detected”. For the same molecule, the “whole-body load within 1 day following the treatment, treated once” value in data set [4] (i.p., once with 50 μmol/kg, control 90%) is recorded as 20%. Further, the “whole-body load within 1 day following the treatment, treated twice” value in data set [4] (i.p., twice in 3-hour interval, control 90%) is given as 20%.
Take `O=C([O-])C(C(=O)[O-])N1CCOCCOCCN(C(C(=O)[O-])C(=O)[O-])CCOCCOCC1.[Ca+2].[Na+].[Na+]` [N,N'-bis(dicarboxymethyl)-1,4,10,13-tetraoxa-7,16-diazacyclooctadecane calcium complex disodium salt]: the “toxicity (in words)” value in data set [2] (in vivo) is given as “low toxicity”. For the same molecule, the “effectivity (in words)” value in data set [5] is reported as “particularly outstanding effect; also recorded: high decorporating effectivity”.
`O=C([O-])C(C(=O)[O-])N1CCOCCOCCN(C(C(=O)[O-])C(=O)[O-])CCOCCOCC1.[K+].[K+].[K+].[K+]` [3/a, N,N'-bis(dicarboxymethyl)-1,4,10,13-tetraoxa-7,16-diazacyclooctadecane tetrapotassium salt]: in data set [6], the LD50 at 720 h was 333 µmol/kg. Besides, in data set [3], the EI value amounted to 12.30 and the F factor came out at 2.3.
For `O=C(O)C(Cc1ccccc1)(C(=O)O)N1CCOCCOCCN(C(Cc2ccccc2)(C(=O)O)C(=O)O)CCOCCOCC1` [Example 16, N,N'-bis(benzyl-dicarboxymethyl)-1,4,10,13-tetraoxa-7,16-diazacyclooctadecane tetrasodium salt sodium bromide double salt] the same measures were 470 µmol/kg, 7.10 and 1.3.

As usually defined, the LD50 is the dose at which mortality reaches 50%. Read a low LD50 as greater toxicity.
